Data on 79 compounds can be found in the METLIN SMRT retention time set (Domingo-Almenara et al. 2019).

This series is described as follows: gradient 5% acetonitrile 3 min, to 50% in 2 min, to 85% in 15 min, held 3 min, 100 µL/min. The conditions noted are these: column: Zorbax Extend-C18 2.1 x 50 mm; eluents: water / acetonitrile, 0.1% formic acid. The procedure, abridged:
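Retention times of pure standards were taken from adduct peaks that were selected by computer and manually inspected. Over 3 months, mixtures of ~100 molecules were run by HPLC–quadrupole time-of-flight mass spectrometry in positive and negative ionization mode. The Zorbax Extend-C18 column (2.1 × 50 mm, 1.8 μm) ran at 100 μL/min in water and acetonitrile, each containing 0.1% formic acid, with 40 μL dead volume and 900 μL dwell volume.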
`CC1CCCN(S(=O)(=O)c2cccc(-c3cn4cc(Cl)ccc4n3)c2)C1` (centres undefined): the RP-LC retention time worked out at 999 s.
As for `CCc1ccc(NC(=O)Cn2nc3cc(C)nc(Nc4ccc(F)c(C)c4)n3c2=O)cc1`, the RP-LC retention time came to 1160 s.
The value for `CCc1ccc(NC(=O)NCCn2c(-c3ccncc3)nc3cccnc32)cc1` was 623 s; that for `COc1ccccc1CCC(=O)NC(C)C(=O)Nc1nc2ccccc2[nH]1` (centres undefined) was 658 s; that for `CCOC(=O)C1CCN(C(=O)c2sc3ncn(CC(=O)N4CCCCC4C)c(=O)c3c2C)CC1` (centres undefined) was 776 s.
With `COc1ccc(-c2nc3c(C)cccn3c2Nc2ccccc2C)cc1` the figure was 755 s.
With `Cc1ccc(-c2noc(CSc3nccn3-c3ccc(C)cc3)n2)cc1` the figure was 1020 s; with `O=C(CCc1c(-c2ccc(Br)cc2)nc2ccccn12)NCCC1=CCCCC1`, 753 s.
`COc1ccc(/C=C/c2nc(-c3ccc4oc(C)nc4c3)no2)cc1OC` displayed an RP-LC retention time of 995 s.
The value for `Cc1cc(NCc2ccccn2)n2c(nc3ccccc32)c1C#N` was 590 s; that for `Cc1cccc(Cn2c(CN3CCC(C(=O)NC4CCCCCCC4)CC3)cc3ccccc32)c1` was 936 s; that for `CCN(CC)CCNC(=O)C1c2ccccc2C(=O)N2CCc3cc(OC)c(OC)cc3C12` (centres undefined) was 599 s.
With `Cc1cccc2c(=O)n(C3CCN(S(=O)(=O)c4ccc(F)cc4)CC3)cnc12` the figure was 949 s.
The value for `Cc1ccc(N2C(=O)CN(S(C)(=O)=O)CC2(C)C(=O)NCc2ccc(Cl)cc2)c(C)c1` (centres undefined) was 903 s; that for `CC(Cc1ccco1)NC(=O)Cn1c(=O)c(=O)n(C)c2ncccc21` (centres undefined) was 688 s.
Regarding `O=C(Nc1ccc(F)cc1)N1CC2CN(S(=O)(=O)c3ccccc3)CC(C1)O2`, the RP-LC retention time came out at 752 s.
The compound `CC(=O)Nc1ccc(OCC(=O)NCc2cc(F)cc(F)c2)nc1` registered an RP-LC retention time of 672 s.
Compound `CN(Cc1ccco1)c1nc(-c2ccc(Cl)cc2)nc2ccccc12` had an RP-LC retention time of 858 s.
The value for `Clc1cccc(-c2csc(Cc3nc(-c4ccc5c(c4)OCO5)no3)n2)c1` was 1260 s; that for `O=S(=O)(c1cccc(-c2nnc(SC/C=C/c3ccccc3)o2)c1)N1CCOCC1` was 980 s; that for `Cc1ccc(C)c(NS(=O)(=O)c2cc(-c3cc(C(F)(F)F)on3)sc2C)c1` was 1320 s.
`COc1ccccc1CC(=O)Nc1ccc(-c2nc(Cn3cccn3)c(C)o2)cc1` had an RP-LC retention time of 869 s.
As to `CCCc1ccc(S(=O)(=O)N2CCC(c3noc(-c4cccc(C)c4)n3)CC2)cc1`, the RP-LC retention time is 1370 s.
With `CCN1C(=O)c2cccnc2Sc2cc(C(=O)NC(C)C)ccc21` the figure was 697 s.
The value for `Cn1c(=O)c2c(C(=O)NCC3CCN(Cc4ccc(Cl)cc4)CC3)cc(=O)n(C)c2n(C)c1=O` was 626 s.
`O=C(Nc1ccc(Br)cc1)Nc1ccc2nc3n(c(=O)c2c1)CCCC3` displayed an RP-LC retention time of 740 s.
Turning to `Cc1oc(C2CCN(C(=O)c3ccc(F)c(Cl)c3)CC2)nc1C(=O)N1CCCCC1`, the RP-LC retention time amounted to 868 s.
With `CCC1CN2C=NC(N3CCN(C(=O)c4nn(C)c5ccccc45)CC3)=CC2=N1` (centres undefined), the RP-LC retention time was 636 s.
The value for `Cc1csc(-c2cc(S(=O)(=O)N3CCN(C)CC3)cn2CC(=O)N2CCCCC2)n1` was 654 s; that for `COc1cc(NC(=O)Cn2nc(N3CCC(C)CC3)c3ccccc3c2=O)cc(OC)c1` was 1110 s.
The value for `COc1ccc(S(=O)(=O)N2CCC(c3noc(-c4ccccc4)n3)CC2)cc1Cl` was 1140 s.
Take `O=C(O)c1ccccc1N1C(=O)C2C3C=CC(C3)C2C1=O` (centres undefined): the RP-LC retention time came out at 621 s.
For the compound `O=C(Nc1nc(-c2nc3ccccc3s2)cs1)c1ccno1`, the RP-LC retention time turned out to be 810 s.
`CCCn1c(CCNC(=O)c2ccccc2F)nc2cccnc21` registered an RP-LC retention time of 644 s.
With `COc1ccc(C(O)CN2CCN(c3ncccn3)CC2)cc1OC` (centres undefined) the figure was 566 s; with `O=c1c2sccc2n(Cc2nc(-c3ccc(F)cc3)no2)c(=O)n1-c1ccc(F)cc1`, 987 s.
With `CCNC(=O)N1CCCC(Cc2nncn2C(C)C)C1` (centres undefined) the figure was 494 s; with `O=C(Nc1nc(-c2nc3ccccc3s2)cs1)c1coc2ccccc2c1=O`, 1160 s; with `O/C(=C\Sc1nnc(COc2ccc(Cl)cc2Cl)o1)c1ccc(F)cc1`, 915 s.
`N#Cc1ccc(NC(=O)Cn2cccc(-c3nc(-c4ccc(Br)cc4)no3)c2=O)cc1` yielded an RP-LC retention time of 952 s.
Take `CSc1ccc(CNC(=O)C2CCN(c3cncnc3N3CCCCC3)CC2)cc1`: the RP-LC retention time is 734 s.
With `CCOC(=O)CNC(=O)NC(C)C(=O)N1CCc2ccccc21` (centres undefined) the figure was 687 s.
With `CC1Cc2ccccc2N1C(=O)c1ccc(=O)n(CCC(=O)NC2CCCCCCC2)n1` (centres undefined) the figure was 895 s.
The value for `CCCN1C(=O)COc2ccc(-c3noc(-c4cccc(OC)c4)n3)cc21` was 1190 s; that for `COc1ccc(CNC(=O)c2cc3c(s2)N(C)CCC3)c(OC)c1` was 926 s; that for `Oc1cccc(-c2nc3cnc(Br)cn3c2Nc2cccc(C(F)(F)F)c2)c1` was 902 s.
`Cc1ccc(N2CCC(NC(=O)Nc3ccccc3Cl)C2=O)cc1C` (centres undefined) yielded an RP-LC retention time of 909 s.
Compound `CCc1ccc(NS(=O)(=O)c2cc3[nH]c(=O)[nH]c3cc2C)cc1` gave an RP-LC retention time of 719 s.
With `COC(=O)C1=CN(c2ccc(F)cc2C)c2ccc(F)cc2S1(=O)=O` the figure was 920 s; with `COCCNC(=O)c1ccc(-c2ccc(N3CCCCC3)nc2)cc1`, 603 s; with `Cn1nc2c(c1NC(=O)C1CCCN1S(=O)(=O)c1ccc(F)cc1)CCC2` (centres undefined), 700 s.
`Cc1nc(-c2ccccc2)sc1C(=O)Nc1nc(-c2ccc(F)cc2)c(C)s1` returned an RP-LC retention time of 1280 s.
With `COC(=O)c1cc2c(=O)n(-c3nc4ccc(OC)cc4s3)ccc2nc1C` the figure was 1160 s; with `CCCS(=O)(=O)N1CCC(N2C[C@H](Oc3ccccc3)[C@@H]2c2ccncc2)CC1`, 685 s; with `CCC(NC(=O)C1CCCN(c2cnc3nccnc3c2)C1)c1ccc(OC)cc1` (centres undefined), 735 s.
Compound `CCOC(=O)C1=C(CN2CCN(c3ccccn3)CC2)NC(=O)NC1c1ccc(F)cc1` (centres undefined) came in with an RP-LC retention time of 625 s.
On to `CN(C)c1cc(N2CCCC(NC(=O)c3ccccn3)C2)ncn1` (centres undefined), for which the RP-LC retention time worked out at 559 s.
`Nc1nnc(-c2ccc(Br)cc2)o1` came in with an RP-LC retention time of 647 s.
With `CCOC(=O)c1cc(C2CC2)nc2c1c(=O)n(Cc1ccccc1F)c(=O)n2C` the figure was 1140 s; with `O=C1COc2cc(S(=O)(=O)N3CCCC3C(=O)Nc3ccccc3)c(Cl)cc2N1` (centres undefined), 768 s; with `COc1cccc(NC(=O)NCCn2c(C(F)(F)F)nc3cccnc32)c1`, 698 s.
With `O=C(Cn1nc2c3cc(-c4ccc(F)cc4)nn3ccn2c1=O)NC1CCCC1`, the RP-LC retention time was determined as 824 s.
With `Cc1ccc(-c2nnc(Cc3nc(-c4ccc(F)cc4)no3)o2)cc1` the figure was 1050 s; with `O=C(NCC1(CO)CC1)NC1CCCCC1`, 621 s.
With `CCN(CC)c1ccc(-c2noc(CN3CCC4(CC3)OCCO4)n2)cn1` the figure was 579 s; with `O=C(Cn1c(=O)c2cc(C3CC3)nn2c2ncccc21)NCc1ccccc1Cl`, 766 s.
The compound `COCCN1C(=O)Cc2ccccc2C1C(=O)NC(C)C` (centres undefined) gave an RP-LC retention time of 652 s.
In turn, `COc1ccc2c(c1)C=C(C(=O)NCc1ccccc1)C=CO2` returned an RP-LC retention time of 940 s.
With `O=C(c1cc(-c2cccs2)[nH]n1)N1CCN(c2ccccn2)CC1` the figure was 596 s.
As to `Cc1ccc2c(=O)c3c([nH]c2c1C)CCN(CC(=O)NC1CCCCC1)C3`, the RP-LC retention time was found to be 619 s.
`O=C(C1CCN(S(=O)(=O)N2CCOCC2)CC1)N1CCN(Cc2noc3ccccc23)CC1` had an RP-LC retention time of 645 s.
The value for `CN(C)CCCNC(=O)C(=O)c1c(-c2ccccc2)cc2ccccn12` was 620 s; that for `CCN1C(=O)C2(CCN(S(=O)(=O)c3ccc(CC(C)C)cc3)CC2)c2ccccc21` was 587 s.
The value for `COc1cccc(-c2nc(-c3cn(Cc4cccc(F)c4)nn3)no2)c1` was 995 s; that for `O=C(Nc1ccc(-c2nc3ccccc3[nH]2)cc1)c1ccccc1[N+](=O)[O-]` was 574 s; that for `CC(C)Sc1cc2c(cc1NC(=O)Cc1cccc(F)c1)n(C)c(=O)n2C` was 987 s.
The value for `Cc1ccc(NS(=O)(=O)c2cc(-c3[nH]ncc3C(=O)N3CCCCC3)oc2C)c(C)c1` was 791 s; that for `CCOC(=O)CNC(=O)NCC(c1ccccc1)c1c[nH]c2ccccc12` (centres undefined) was 847 s.
Turning to `C=CCN1CCN(C(=O)C2=NN(c3ccc(C)cc3)c3ncccc3S2(=O)=O)CC1`, the RP-LC retention time came out at 637 s.
